Test results published in patent US20230265151A1, “GIP/GLP1 CO-AGONIST COMPOUNDS” (priority 2020, published 2023).
Read-outs that look alike come from different tables or passages of the source.

Columns and labels:
Type in all cases: cell-based
hGIPR = target: T1, hGIPR (Homo sapiens, UniProt P48546); assay: Functional cAMP formation (HTRF) in HEK-293 clonal cells expressing hGIPR, 0.1% bovine casein, without or with 1.0% human serum albumin; settings: for EC50: geometric mean, read-out: hGIPR EC50, nM (SEM, n); for Emax: read-out: hGIPR Emax, % ± SEM
T1 construct: expressed in transfected cells
T1 sequence (P48546 22-466): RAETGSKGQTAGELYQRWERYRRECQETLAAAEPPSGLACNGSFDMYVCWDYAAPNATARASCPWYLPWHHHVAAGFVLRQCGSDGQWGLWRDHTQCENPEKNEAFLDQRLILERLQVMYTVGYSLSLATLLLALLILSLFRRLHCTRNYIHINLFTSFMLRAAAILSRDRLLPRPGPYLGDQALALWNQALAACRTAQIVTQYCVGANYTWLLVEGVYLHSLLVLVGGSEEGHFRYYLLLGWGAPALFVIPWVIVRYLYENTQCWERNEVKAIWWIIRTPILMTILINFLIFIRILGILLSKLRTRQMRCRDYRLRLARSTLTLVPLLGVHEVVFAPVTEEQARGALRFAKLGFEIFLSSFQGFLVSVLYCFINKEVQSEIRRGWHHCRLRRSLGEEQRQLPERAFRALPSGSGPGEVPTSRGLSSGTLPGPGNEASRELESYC
How it was run: (§1)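 Cells were stimulated with peptide for 30 min at 37° C, then intracellular cAMP was measured by competitive HTRF (665/620 nm ratio) and converted to nM using a cAMP standard curve. Relative EC50 and Emax came from four-parameter logistic fits of percent maximal response against peptide concentration.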

hGCGR = target: T2, hGCGR (Homo sapiens, UniProt P47871); assay: Functional cAMP formation (HTRF) in HEK-293 clonal cells expressing hGCGR, 0.1% bovine casein, without or with 1.0% human serum albumin; settings: geometric mean, read-out: hGCGR EC50, nM (SEM, n)
T2 construct: expressed in transfected cells
How it was run: as §1

hGLP-1R = hGLP-1R (Homo sapiens, UniProt P43220); assay: Functional cAMP formation (HTRF) in HEK-293 clonal cells expressing hGLP-1R, 0.1% bovine casein, without or with 1.0% human serum albumin; parameters: expressed in transfected cells; settings: for Emax: read-out: hGLP-1R Emax, % ± SEM; for EC50: cAMP, 0.1% bovine casein (no human serum albumin), geometric mean, read-out: hGLP-1R EC50, nM (SEM, n)
How it was run: as §1

[1] = 0.1% bovine casein and 1.0% human serum albumin, 37° C.
[2] = HEK293, 0.1% bovine casein and 1.0% human serum albumin, 37° C., percent of maximal response to GIP(1-42)NH2
[3] = HEK293, percent of maximal response to GIP(1-42)NH2, 37° C., 0.1% bovine casein, arithmetic mean
[4] = cAMP, incubated at 37° C., 0.1% bovine casein (no human serum albumin)
[5] = HEK293, percent of maximal response to GLP-1(7-36)NH2, 37° C., 0.1% bovine casein, arithmetic mean
[6] = HEK293, 0.1% bovine casein and 1.0% human serum albumin, 37° C., percent of maximal response to GLP-1(7-36)NH2
[7] = cAMP, 37° C., 0.1% bovine casein (no human serum albumin)

T2 sequence (P47871 26-477): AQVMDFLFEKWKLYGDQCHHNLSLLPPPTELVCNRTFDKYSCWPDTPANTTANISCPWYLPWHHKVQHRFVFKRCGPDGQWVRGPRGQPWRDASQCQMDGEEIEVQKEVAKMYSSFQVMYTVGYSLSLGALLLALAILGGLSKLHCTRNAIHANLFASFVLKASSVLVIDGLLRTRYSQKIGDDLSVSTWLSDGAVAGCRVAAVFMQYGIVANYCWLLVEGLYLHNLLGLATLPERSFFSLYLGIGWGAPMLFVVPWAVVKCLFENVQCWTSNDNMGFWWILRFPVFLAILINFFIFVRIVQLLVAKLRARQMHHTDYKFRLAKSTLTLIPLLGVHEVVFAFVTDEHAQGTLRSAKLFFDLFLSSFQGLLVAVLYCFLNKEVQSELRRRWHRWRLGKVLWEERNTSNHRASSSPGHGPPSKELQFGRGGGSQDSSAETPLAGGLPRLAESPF
Sequence of hGLP-1R (P43220 24-463): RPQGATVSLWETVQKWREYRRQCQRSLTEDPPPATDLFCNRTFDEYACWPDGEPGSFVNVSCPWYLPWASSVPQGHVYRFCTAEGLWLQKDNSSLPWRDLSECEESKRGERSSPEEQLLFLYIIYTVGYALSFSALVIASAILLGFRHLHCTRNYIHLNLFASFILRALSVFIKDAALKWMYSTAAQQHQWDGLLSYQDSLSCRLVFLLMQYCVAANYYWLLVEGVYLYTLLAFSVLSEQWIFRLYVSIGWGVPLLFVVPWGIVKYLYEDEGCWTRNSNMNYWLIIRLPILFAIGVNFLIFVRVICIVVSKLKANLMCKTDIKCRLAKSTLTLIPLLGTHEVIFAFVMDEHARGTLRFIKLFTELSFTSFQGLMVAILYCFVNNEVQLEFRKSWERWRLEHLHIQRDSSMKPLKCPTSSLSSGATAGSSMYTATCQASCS

Question: With `CC[C@H](C)[C@H](NC(=O)[C@H](CC(C)C)NC(=O)[C@](C)(Cc1ccc(O)cc1)NC(=O)[C@@H](CCC(=O)O)NC(=O)[C@@H](NC(=O)[C@H](Cc1ccccc1)NC(=O)[C@H](Cc1ccncc1)NC(=O)C(C)(C)NC(=O)[C@H](CCC(N)=O)NC(=O)[C@H](C)NC(=O)[C@H](CCCCNC(=O)COCCOCCNC(=O)COCCOCCNC(=O)CC[C@H](NC(=O)CCCCCCCCCCCCC(=O)O)C(=O)O)NC(=O)[C@H](CCCN)NC(=O)[C@H](CC(=O)O)NC(=O)[C@H](CC(C)C)NC(=O)[C@](C)(CC(C)C)NC(=O)[C@@H](NC(=O)[C@H](CO)NC(=O)[C@H](Cc1ccncc1)NC(=O)[C@H](CC(=O)O)NC(=O)[C@H](CO)NC(=O)[C@@H](NC(=O)[C@](C)(Cc1ccccc1F)NC(=O)[C@@H](NC(=O)CNC(=O)[C@H](CCC(=O)O)NC(=O)C(C)(C)NC(=O)[C@@H](N)Cc1ccc(O)cc1)[C@@H](C)O)[C@@H](C)O)[C@@H](C)CC)[C@@H](C)CC)C(=O)N[C@@H](CCC(=O)O)C(=O)NCC(=O)NCC(=O)N[C@@H](CCCCNC(=O)COCCOCCNC(=O)COCCOCCNC(=O)CC[C@H](NC(=O)CCCCCCCCCCCCC(=O)O)C(=O)O)C(=O)N[C@@H](CO)C(=O)N[C@@H](CO)C(=O)NCC(=O)N[C@@H](C)C(=O)N1CCC[C@H]1C(=O)N1CCC[C@H]1C(=O)N1CCC[C@H]1C(=O)N[C@@H](CO)C(N)=O` [Example 157] as the molecule, how does the EC50 (hGIPR; [1]) read?
Answer: Its EC50 is 0.718 nM.

Question: And the Emax (hGIPR; [2])?
Answer: The Emax was 89.6 ± 3.39%.

Question: And the Emax (hGIPR; [3])?
Answer: Its Emax is 98.8 ± 1.33%.

Question: And the EC50 (hGIPR; [4])?
Answer: The EC50 was 0.0286 nM.

Question: What about the EC50 (hGCGR; [1]) of the same molecule?
Answer: Its EC50 is over 9950 nM.

Question: And the EC50 (hGCGR; [4])?
Answer: The EC50 was over 9950 nM.

Question: What about the Emax (hGLP-1R; [5]) of the same molecule?
Answer: The Emax was 98.5 ± 4.73%.

Question: Which results are given for `CC[C@H](C)[C@H](NC(=O)[C@H](CC(C)C)NC(=O)[C@](C)(Cc1ccc(O)cc1)NC(=O)[C@@H](CCC(=O)O)NC(=O)[C@@H](NC(=O)[C@](C)(Cc1ccccc1)NC(=O)[C@H](CCC(=O)O)NC(=O)C(C)(C)NC(=O)[C@H](CCC(N)=O)NC(=O)[C@H](C)NC(=O)[C@H](CCCCNC(=O)COCCOCCNC(=O)COCCOCCNC(=O)CC[C@H](NC(=O)CCCCCCCCCCCCC(=O)O)C(=O)O)NC(=O)[C@H](CCCN)NC(=O)[C@H](CC(=O)O)NC(=O)[C@H](CC(C)C)NC(=O)[C@](C)(CC(C)C)NC(=O)[C@@H](NC(=O)[C@H](CO)NC(=O)C1(NC(=O)[C@H](CC(=O)O)NC(=O)[C@H](CO)NC(=O)[C@@H](NC(=O)[C@](C)(Cc2ccccc2F)NC(=O)[C@@H](NC(=O)CNC(=O)[C@H](CCC(=O)O)NC(=O)C(C)(C)NC(=O)[C@@H](N)Cc2ccc(O)cc2)[C@@H](C)O)[C@@H](C)O)CCCC1)[C@@H](C)CC)[C@@H](C)CC)C(=O)N[C@@H](CCC(=O)O)C(=O)NCC(=O)NCC(=O)N[C@@H](CCCCNC(=O)COCCOCCNC(=O)COCCOCCNC(=O)CC[C@H](NC(=O)CCCCCCCCCCCCC(=O)O)C(=O)O)C(=O)N[C@@H](CO)C(=O)N[C@@H](CO)C(=O)NCC(=O)N[C@@H](C)C(=O)N1CCC[C@H]1C(=O)N1CCC[C@H]1C(=O)N1CCC[C@H]1C(=O)N[C@@H](CO)C(N)=O` [Example 94]?
Answer: Emax (hGIPR; [2]): 97.1%; Emax (hGIPR; [3]): 91%; EC50 (hGIPR; [4]): 0.0132 nM; EC50 (hGCGR; [1]): > 9950 nM; EC50 (hGCGR; [4]): > 9950 nM; Emax (hGLP-1R; [6]): 113%; Emax (hGLP-1R; [5]): 97.4%; EC50 (hGLP-1R; incubated at 37° C.): 2.1 nM

Question: For `CC[C@H](C)[C@H](NC(=O)[C@H](CCCN)NC(=O)[C@H](CC(=O)O)NC(=O)[C@H](CC(C)C)NC(=O)[C@](C)(CC(C)C)NC(=O)[C@@H](NC(=O)C(C)(C)NC(=O)[C@H](Cc1ccc(O)cc1)NC(=O)[C@H](CC(=O)O)NC(=O)[C@H](CO)NC(=O)[C@@H](NC(=O)[C@](C)(Cc1ccccc1F)NC(=O)[C@@H](NC(=O)CNC(=O)[C@H](CCC(=O)O)NC(=O)C(C)(C)NC(=O)[C@@H](N)Cc1ccc(O)cc1)[C@@H](C)O)[C@@H](C)O)[C@@H](C)CC)C(=O)N[C@@H](C)C(=O)N[C@@H](CCC(N)=O)C(=O)NC(C)(C)C(=O)N[C@@H](CCC(=O)O)C(=O)N[C@@H](Cc1ccccc1)C(=O)N[C@H](C(=O)N[C@@H](CCCCNC(=O)COCCOCCNC(=O)CC[C@H](NC(=O)CCCCCCCCCCCCC(=O)O)C(=O)O)C(=O)N[C@@](C)(Cc1ccc(O)cc1)C(=O)N[C@@H](CC(C)C)C(=O)N[C@H](C(=O)N[C@@H](CCCCNC(=O)COCCOCCNC(=O)CC[C@H](NC(=O)CCCCCCCCCCCCC(=O)O)C(=O)O)C(=O)NCC(=O)NCC(=O)N1CCC[C@H]1C(=O)N[C@@H](CO)C(=O)N[C@@H](CO)C(=O)NCC(=O)N[C@@H](C)C(=O)N1CCC[C@H]1C(=O)N1CCC[C@H]1C(=O)N1CCC[C@H]1C(=O)N[C@@H](CO)C(N)=O)[C@@H](C)CC)[C@@H](C)CC` [Example 369], which EC50 (hGIPR; [7]) is on record?
Answer: Its EC50 is 0.037 nM.

Question: And the EC50 (hGCGR; [7])?
Answer: Its EC50 is over 9950 nM.

Question: What about the EC50 (hGLP-1R; 37° C.) of the same molecule?
Answer: Its EC50 is 0.555 nM.

Question: Which Emax (hGIPR; [2]) does the source give for `CC[C@H](C)[C@H](NC(=O)[C@H](CC(C)C)NC(=O)[C@](C)(Cc1ccc(O)cc1)NC(=O)[C@@H](CCC(=O)O)NC(=O)[C@@H](NC(=O)[C@](C)(Cc1ccccc1)NC(=O)[C@H](CCC(=O)O)NC(=O)C(C)(C)NC(=O)[C@H](CCC(N)=O)NC(=O)[C@H](C)NC(=O)[C@H](CCCCNC(=O)COCCOCCNC(=O)COCCOCCNC(=O)CC[C@H](NC(=O)CCCCCCCCCCCCC(=O)O)C(=O)O)NC(=O)[C@H](CCCN)NC(=O)[C@H](CC(=O)O)NC(=O)[C@H](CC(C)C)NC(=O)[C@](C)(CC(C)C)NC(=O)[C@@H](NC(=O)C(C)(C)NC(=O)[C@@H](NC(=O)[C@H](CC(=O)O)NC(=O)[C@H](CO)NC(=O)[C@@H](NC(=O)[C@](C)(Cc1ccccc1F)NC(=O)[C@@H](NC(=O)CNC(=O)[C@H](CCC(=O)O)NC(=O)C(C)(C)NC(=O)[C@@H](N)Cc1ccc(O)cc1)[C@@H](C)O)[C@@H](C)O)C(C)C)[C@@H](C)CC)[C@@H](C)CC)C(=O)N[C@@H](CCC(=O)O)C(=O)NCC(=O)NCC(=O)N[C@@H](CCCCNC(=O)COCCOCCNC(=O)COCCOCCNC(=O)CC[C@H](NC(=O)CCCCCCCCCCCCC(=O)O)C(=O)O)C(=O)N[C@@H](CO)C(=O)N[C@@H](CO)C(=O)NCC(=O)N[C@@H](C)C(=O)N1CCC[C@H]1C(=O)N1CCC[C@H]1C(=O)N1CCC[C@H]1C(=O)N[C@@H](CO)C(N)=O` [Example 93] here?
Answer: Its Emax is 92%.

Question: And the Emax (hGIPR; [3])?
Answer: Its Emax is 99.4 ± 6.93%.

Question: And the EC50 (hGCGR; [1])?
Answer: Its EC50 is over 9950 nM.

Question: What about the EC50 (hGCGR; [4]) of the same molecule?
Answer: Its EC50 is over 9950 nM.

Question: What about the Emax (hGLP-1R; [6]) of the same molecule?
Answer: The Emax was 90.2%.

Question: How did the Emax (hGIPR; HEK293, cAMP, 37° C., 0.1% bovine casein, percent of maximal response to GIP(1-42)NH2, arithmetic mean) turn out when `CC[C@H](C)[C@H](NC(=O)[C@H](CCCN)NC(=O)[C@H](CC(=O)O)NC(=O)[C@H](CC(C)C)NC(=O)[C@](C)(CC(C)C)NC(=O)[C@@H](NC(=O)C(C)(C)NC(=O)[C@@H](NC(=O)[C@H](CC(=O)O)NC(=O)[C@H](CO)NC(=O)[C@@H](NC(=O)[C@](C)(Cc1ccccc1F)NC(=O)[C@@H](NC(=O)CNC(=O)[C@H](CCC(=O)O)NC(=O)C(C)(C)NC(=O)[C@@H](N)Cc1ccc(O)cc1)[C@@H](C)O)[C@@H](C)O)C(C)C)[C@@H](C)CC)C(=O)N[C@@H](C)C(=O)N[C@@H](CCC(N)=O)C(=O)NC(C)(C)C(=O)N[C@@H](CCC(=O)O)C(=O)N[C@@H](Cc1ccccc1)C(=O)N[C@H](C(=O)N[C@@H](CCCCNC(=O)COCCOCCNC(=O)COCCOCCNC(=O)CC[C@H](NC(=O)CCCCCCCCCCCCC(=O)O)C(=O)O)C(=O)N[C@@](C)(Cc1ccc(O)cc1)C(=O)N[C@@H](CC(C)C)C(=O)N[C@H](C(=O)N[C@@H](CCCCNC(=O)COCCOCCNC(=O)COCCOCCNC(=O)CC[C@H](NC(=O)CCCCCCCCCCCCC(=O)O)C(=O)O)C(=O)NCC(=O)NCC(=O)N1CCC[C@H]1C(=O)N[C@@H](CO)C(=O)N[C@@H](CO)C(=O)NCC(=O)N[C@@H](C)C(=O)N1CCC[C@H]1C(=O)N1CCC[C@H]1C(=O)N1CCC[C@H]1C(=O)N[C@@H](CO)C(N)=O)[C@@H](C)CC)[C@@H](C)CC` [Example 304] was run?
Answer: The Emax was 110%.

Question: And the EC50 (hGIPR; [7])?
Answer: Its EC50 is 0.047 nM.

Question: And the EC50 (hGCGR; [1])?
Answer: The EC50 was over 9950 nM.

Question: And the EC50 (hGCGR; [7])?
Answer: Its EC50 is over 9950 nM.

Question: And the Emax (hGLP-1R; [6])?
Answer: The Emax was 98.3%.

Question: And the EC50 (hGLP-1R; 37° C.)?
Answer: Its EC50 is 0.474 nM.
